Key:
[1] = test system: AAV-PTPN11^D61G-expressing mice; assay: Morris water maze (hidden platform, probe trial) in AAV-PTPN11^D61G-expressing mice treated with SL327; format: in vivo; conditions: for proximity to the target platform, probe trial: SL327 32 mg/kg intraperitoneal
Experimental: To test whether reducing Erk activity could reverse the memory deficit in AAV-PTPN11^D61G-expressing mice, we treated these mice with the MEK inhibitor SL327 or vehicle daily, 30 min before training.
SL327 (Tocris) was dissolved in DMSO (16 mg/ml) and was injected intraperitoneally once daily, 30 min before the water maze experiment at a dose of 32 mg/kg. The volume of a single injection was under 80 μl. Lovastatin (Mevinolin, Sigma) was prepared as previously described^21. Briefly, lovastatin was dissolved in ethanol (final concentration of 8%) and 1N NaOH was added to convert mevinolin to the sodium salt. The pH of the final solution (4 mg/ml) was adjusted to 7.5 with HCl. The Vehicle solution was prepared with the same procedure. Lovastatin was administered daily (subcutaneous injection, 10 mg/kg) for 3 days before the first training day of the water maze and 6 hr before training every day thereafter.
The coding sequence of human PTPN11 with or without the D61G mutation was subcloned into the HindIII-NsiI site of the AAV expression vector pSOFF. The resultant vector expresses mutant PTPN11 under the synthetic CBA promoter (CMV enhancer and chicken beta-actin promoter). Recombinant virus (rAAV5) was purified as previously described^32. Briefly, an iodixanol gradient purification was performed followed by ion exchange chromatography step which results in a 99% pure vector preparation as judged by silver stained-SDS acrylamide gel fractionation. After the chromatography, the buffer was exchanged and the virus was concentrated in Ringer's solution using a Biomax 100 K concentrator (Millipore). Vector titers were determined by Real Time PCR. Typical titers were 3.09×10^12 genome copies/ml. rAAV5-GFP expressing only GFP was used as a control. […]
In the hidden platform-version of Morris water maze, mice were trained with two blocks of 2 trials (ITI=1 min) spaced about 45 min apart. […] Memory was assessed in probe trials that were given after completion of training as described in the main text. […] Data were acquired and analyzed using WaterMaze software (Actimetrics).

[2] = test system: hippocampal slices from the AAV-PTPN11^D61G-infected mice; assay: 5 TBS-induced CA1 Schaffer collateral LTP, extracellular field recordings, bath-applied SL327; format: cell-based; conditions: SL327 1 μM applied 1 hr before LTP induction and kept in bath
From the text: FIG. 3 are graphs showing that PTPN11^D61G overexpression induces learning and memory and LTP deficits that can be reversed by MEK inhibition. Panel a) AAV5-PTPN11^D61G infection results in overexpression of SHP2^D61G. […] Panel b) PTPN11^D61G overexpression increases basal Erk activity (phospho-Erk level) and prevents further Eric activation in response to TBS. Left, Representative immunoblot showing p-Erk (upper) and total Eric (lower) in PTPN11^D61G-expressing slices and GFP-expressing slices. Slices were prepared 1 hr after TBS. […] Panels c and d) MEK inhibitor SL327 (CAS 305350-87-2) reverses spatial memory deficits in PTPN11^D61G-overexpressing mice. […]
For extracellular recordings of field excitatory postsynaptic potentials (fEPSP), sagittal slices (400 μm) were prepared with a vibratome (VT1000S, Leica) in ice-cold artificial cerebrospinal fluid (ACSF). […] Recording was performed in a submerged chamber perfused with ACSF (32° C.). fEPSPs were recorded with platinum-iridium electrodes placed in the CA1 stratum radiatum. […] Baseline responses were measured with stimulation (0.017 Hz, 0.1 ms pulse duration) at an intensity (typically 20-30 μA) that evoked a response that was approximately one third of the maximum evoked response. […] Initial fEPSP slopes were measured and normalized to the average of baseline (Clampfit 10.2).

For N#C/C(=C(/N)Sc1ccc(N)cc1)c1ccccc1C(F)(F)F [SL327], the “proximity to the target platform, probe trial” value ([1]; GFP control group) was 43.75±1.45 cm, the “proximity to the target platform, probe trial” value ([1]; PTPN11^D61G group) was 45.52±2.14 cm and the “time spent in the target quadrant, probe trial” value ([1]; PTPN11^D61G-expressing mice, SL327 32 mg/kg intraperitoneal daily, 30 min before training) was 37.25±3.50%. For the same molecule, the “Average % fEPSP changes (last 10 minutes of recording), 5 TBS-induced LTP” value ([2]; GFP slices) was 146.2±4.37% and the “Average % fEPSP changes (last 10 minutes of recording), 5 TBS-induced LTP” value ([2]; PTPN11^D61G slices) was 146.1±4.36%.

Reference: US10835513B2, “Methods and treatments for the learning and memory deficits associated with Noonan syndrome” (The Regents of the University of California, priority 2013, dated 2020)
